# Reference: US20230181614A1, “ADMINISTRATION OF CITICOLINE TO IMPROVE COGNITIVE PERFORMANCE, ATTENTIONAL PERFORMANCE, AND MOTOR FUNCTION” (KYOWA HAKKO BIO CO., LTD., priority 2014, published 2023)
# System: Healthy subjects, ages 13-18
# Experiment: General Questionnaire
# Assay type: in vivo, human
# Excerpt: Study participants were screened by telephone prior to study enrollment. Healthy subjects, ages 13-18, with no significant medical conditions and no history of co-morbid psychiatric disorder, current Axis I or II diagnosis, or previous participation in a pharmacotherapeutic trial, were selected. Use of any psychotropic medication or any previous head injury resulting in loss of consciousness for 5 or more minutes were used as exclusion criteria. While no participant met criteria for a neuropsychiatric disorder at enrollment, clinical assessments were still completed throughout the study to evaluate changes in mood state. In addition, self-reports of sleep habits, lifestyle, and exercise routines were also administered at baseline as well as at each study visit to assess changes in health habits during study participation. Following the completion of Visit 1 assessment, participants were given their 28-day supply of citicoline (250 mg or 500 mg) or placebo, which was randomly assigned. They were instructed to take one capsule a day every day for the next 28 days. Visit 2 occurred fourteen days after Visit 1. At Visit 2, the remaining study pills were counted and participant dosage calendars were checked to ensure compliance with the protocol. Additional neuropsychological measures and clinical assessments were administered during this visit. Participants returned for Visit 3 fourteen days later, on the 28th day of their study participation. The pill bottle and the dosage calendar were collected from each participant. Urine and blood were again obtained. Participants also participated in similar clinical and neuropsychological testing and clinical measures that were given during visit 1. The General Questionnaire and Exercise and Life Style Questionnaire are self-report questionnaires designed to assess a variety of symptoms, behaviors, and self-perceptions, including mood, complexion, exercise, food, and alcohol habits of each of the participants. The General Questionnaire was administered during each of the three study visits; the Exercise and Life Style Questionnaire was administered during each of the three study visits. The General Questionnaire included five summary categories (Vision, Depression, Attention, Sleep, and Complexion) each of which had multiple individual items. Within and between group analyses are reported below for each of the summary categories.
smiles,measurement,setting,value
"C[N+](C)(C)CCOP(=O)(O)OP(=O)([O-])OC[C@H]1O[C@@H](n2ccc(N)nc2=O)[C@H](O)[C@@H]1O [citicoline, Cytidine 5′-diphosphocholine]","General Questionnaire Vision Q2, Mean","250 mg/day, V3 (day 28)",2.44
same,"General Questionnaire Vision Q3, Mean","250 mg/day, V3 (day 28)",1.81
same,"General Questionnaire Vision Total, Mean","250 mg/day, V3 (day 28)",6.59
same,Attention Total V3-V1 Difference Mean,500 mg/day,-5.17
same,Complexion Total V3-V1 Difference Mean,500 mg/day,-1.42
same,Depression Total V3-V1 Difference Mean,500 mg/day,-5.21
same,Sleep Total V3-V1 Difference Mean,500 mg/day,-3.25
same,Vision Total V3-V1 Difference Mean,500 mg/day,-1.50
same,Attention Q13 V1 Mean,"500 mg/day, Visit 1",2.42
same,Attention Q14 V1 Mean,"500 mg/day, Visit 1",2.21
same,Attention Q15 V1 Mean,"500 mg/day, Visit 1",2.63
same,Attention Q16 V1 Mean,"500 mg/day, Visit 1",2.83
same,Attention Q17 V1 Mean,"500 mg/day, Visit 1",1.96
same,Attention Q18 V1 Mean,"500 mg/day, Visit 1",2.79
same,Attention Q19 V1 Mean,"500 mg/day, Visit 1",7.29
same,Attention Q20 V1 Mean,"500 mg/day, Visit 1",2.54
same,Attention Q21 V1 Mean,"500 mg/day, Visit 1",3.25
same,Attention Q22 V1 Mean,"500 mg/day, Visit 1",1.83
same,Attention Q23 V1 Mean,"500 mg/day, Visit 1",2.92
same,Attention Q24 V1 Mean,"500 mg/day, Visit 1",2.46
same,Attention Total V1 Mean,"500 mg/day, Visit 1",35.13
same,Complexion Q33 V1 Mean,"500 mg/day, Visit 1",2.58
same,Complexion Q34 V1 Mean,"500 mg/day, Visit 1",1.88
same,Complexion Total V1 Mean,"500 mg/day, Visit 1",4.46
same,Depression Q4 V1 Mean,"500 mg/day, Visit 1",1.75
same,Depression Q5 V1 Mean,"500 mg/day, Visit 1",2.46
same,Depression Q6 V1 Mean,"500 mg/day, Visit 1",2.21
same,Depression Q7 V1 Mean,"500 mg/day, Visit 1",3.13
same,Depression Q8 V1 Mean,"500 mg/day, Visit 1",1.92
same,Depression Q9 V1 Mean,"500 mg/day, Visit 1",3.04
same,Depression Q10 V1 Mean,"500 mg/day, Visit 1",2.00
same,Depression Q11 V1 Mean,"500 mg/day, Visit 1",2.00
same,Depression Q12 V1 Mean,"500 mg/day, Visit 1",2.04
same,Depression Total V1 Mean,"500 mg/day, Visit 1",20.54
same,Sleep Q25 V1 Mean,"500 mg/day, Visit 1",3.54
same,Sleep Q26 V1 Mean,"500 mg/day, Visit 1",2.54
same,Sleep Q27 V1 Mean,"500 mg/day, Visit 1",2.00
same,Sleep Q28 V1 Mean,"500 mg/day, Visit 1",2.96
same,Sleep Q29 V1 Mean,"500 mg/day, Visit 1",2.00
same,Sleep Q30 V1 Mean,"500 mg/day, Visit 1",2.04
same,Sleep Q31 V1 Mean,"500 mg/day, Visit 1",2.33
same,Sleep Q32 V1 Mean,"500 mg/day, Visit 1",3.54
same,Sleep Total V1 Mean,"500 mg/day, Visit 1",20.83
same,Vision Q1 V1 Mean,"500 mg/day, Visit 1",2.75
same,Vision Q2 V1 Mean,"500 mg/day, Visit 1",2.54
same,Vision Q3 V1 Mean,"500 mg/day, Visit 1",1.71
same,Vision Total V1 Mean,"500 mg/day, Visit 1",7.00
same,Attention Q13 V3 Mean,"500 mg/day, Visit 3",1.96
same,Attention Q14 V3 Mean,"500 mg/day, Visit 3",1.83
same,Attention Q15 V3 Mean,"500 mg/day, Visit 3",1.92
same,Attention Q16 V3 Mean,"500 mg/day, Visit 3",1.92
same,Attention Q17 V3 Mean,"500 mg/day, Visit 3",1.75
same,Attention Q18 V3 Mean,"500 mg/day, Visit 3",1.92
same,Attention Q19 V3 Mean,"500 mg/day, Visit 3",8.42
same,Attention Q20 V3 Mean,"500 mg/day, Visit 3",1.92
same,Attention Q21 V3 Mean,"500 mg/day, Visit 3",2.42
same,Attention Q22 V3 Mean,"500 mg/day, Visit 3",1.63
same,Attention Q23 V3 Mean,"500 mg/day, Visit 3",2.13
same,Attention Q24 V3 Mean,"500 mg/day, Visit 3",2.17
same,Attention Total V3 Mean,"500 mg/day, Visit 3",29.96
same,Complexion Q33 V3 Mean,"500 mg/day, Visit 3",1.75
same,Complexion Q34 V3 Mean,"500 mg/day, Visit 3",1.29
same,Complexion Total V3 Mean,"500 mg/day, Visit 3",3.04
same,Depression Q4 V3 Mean,"500 mg/day, Visit 3",1.58
same,Depression Q5 V3 Mean,"500 mg/day, Visit 3",1.88
same,Depression Q6 V3 Mean,"500 mg/day, Visit 3",1.67
same,Depression Q7 V3 Mean,"500 mg/day, Visit 3",2.25
same,Depression Q8 V3 Mean,"500 mg/day, Visit 3",1.46
same,Depression Q9 V3 Mean,"500 mg/day, Visit 3",2.00
same,Depression Q10 V3 Mean,"500 mg/day, Visit 3",1.54
same,Depression Q11 V3 Mean,"500 mg/day, Visit 3",1.38
same,Depression Q12 V3 Mean,"500 mg/day, Visit 3",1.58
same,Depression Total V3 Mean,"500 mg/day, Visit 3",15.33
same,Sleep Q25 V3 Mean,"500 mg/day, Visit 3",2.50
same,Sleep Q26 V3 Mean,"500 mg/day, Visit 3",1.71
same,Sleep Q27 V3 Mean,"500 mg/day, Visit 3",1.83
same,Sleep Q28 V3 Mean,"500 mg/day, Visit 3",2.29
same,Sleep Q29 V3 Mean,"500 mg/day, Visit 3",1.96
same,Sleep Q30 V3 Mean,"500 mg/day, Visit 3",1.96
same,Sleep Q31 V3 Mean,"500 mg/day, Visit 3",2.21
same,Sleep Q32 V3 Mean,"500 mg/day, Visit 3",3.13
same,Sleep Total V3 Mean,"500 mg/day, Visit 3",17.58
same,Vision Q1 V3 Mean,"500 mg/day, Visit 3",1.92
same,Vision Q2 V3 Mean,"500 mg/day, Visit 3",2.08
same,Vision Q3 V3 Mean,"500 mg/day, Visit 3",1.50
same,Vision Total V3 Mean,"500 mg/day, Visit 3",5.50
